Like-named read-outs stand apart in the source and are kept apart here.
Tests used:
[1] = system: melanoma lesion tissue of the skin; experiment: Test Example 3: staining with various SC compounds, two-photon microscopy; conditions: for imaging performance for fluorescence observation (rank): cleared melanoma lesion tissue
Experimental: (§1) The staining solution of Test Examples 1 and 2 was prepared by dissolving PK in DMSO at 1 mg/mL. Each of staining solutions of Test Example 3 and Test Example 4 was a DMSO solution containing 1 mM of an SC compound, and was diluted 100 times for use of staining.
(§2) As the skin normal part tissue, the extramammary Paget's disease lesion tissue, and the melanoma lesion tissue used in Test Examples, whole tissue sections of the tissues obtained by excision were used. A dermatologist has confirmed in advance the identification of each tissue. Also, a normal part tissue and a tumor tissue of the rectum were also prepared by whole-sectioning of the tissues obtained by excision, and a specialist has confirmed the identification of each tissue. The collection and use of the tumor tissues were approved by the Clinical Research Ethics Review Board at Ehime University Hospital (No. 1802009) and were conducted according to its study protocol.
(§3) For microscopy, a two-photon microscope AIR MP+(NIKON) was used. In the measurement, a 960 nm laser light source and a 495 nm filter were used for PK, and a 561 nm filter was used for PI. Scanning was performed to a depth of 100 μm of the sample. The three-dimensional reconstructed image is obtained by processing the obtained data with the software included.
(§4) Normal part tissue of the skin and extramammary Paget's disease lesion tissue cleared by LUCID method in the same manner as in Test Example 2 were stained with a staining solution containing PK, PC, Nile Red, or POLARIC. Each stained tissue section was observed according to the method of two-photon microscopy of Test Example 1. The images were produced by coloring a fluorescent wavelength of 492 nm or less in cyan, 500 to 550 nm in green, 560 to 593 nm in yellow, and 593 nm or more in red. Brightness and contrast of the illustrated images were appropriately corrected.
Melanoma lesion tissue of the skin cleared by the same method were similarly stained and observed with a two-photon microscope.

[2] = system: extramammary Paget's disease lesion tissue; experiment: as above; conditions: cleared Paget's disease lesion tissue; for imaging performance for fluorescence observation (rank): judged by fluorescence intensity and contrast of staining
Experimental: as §1, §2, §3, §4

[3] = system: normal rectal mucosal epithelium (columnar epithelium); experiment: Test Example 4: PK and Hoechst staining of rectum, two-photon microscopy; conditions: cleared by LUCID method, co-stained with Hoechst
Experimental: The staining solution of Test Examples 1 and 2 was prepared by dissolving PK in DMSO at 1 mg/mL. […]
as §2, §3
The normal part tissue and the well-differentiated adenocarcinoma lesion tissue of the rectum cleared by LUCID method in the same manner as in Test Example 2 were stained with PK and Hoechst. […]

[4] = cited from earlier work
[5] = system: extramammary Paget's disease lesion tissue, tumor cells (Paget cells); experiment: Test Example 1: PK staining of thin sliced section, two-photon microscopy
Experimental: as §1, §2
The extramammary Paget's disease lesion tissue and the normal part tissue were embedded in paraffin and then cut out to prepare tissue sections. The preparation of the sections (thickness: 5 μm) was performed by the procedure usually performed in histopathological examination. For staining with the PK staining solution, deparaffinization was performed by a conventional method, and then staining was performed by immersion in the PK staining solution at room temperature for several days to one week. In practice, the tissues were sufficiently stained by immersion in the PK staining solution at room temperature for 2 to 3 days.
as §3

[6] = system: well-differentiated adenocarcinoma lesion tissue of the rectum; experiment: Test Example 4: PK and Hoechst staining of rectum, two-photon microscopy; conditions: cleared by LUCID method, co-stained with Hoechst
Experimental: as §1, §2
as §3, with “included. […]” for “included.”

[7] = system: malignant melanoma lesion tissue (melanoma cells); experiment: Test Example 2: PK staining of cleared three-dimensional tissue, two-photon microscopy; conditions: cleared tissue 100 μm thick, LUCID method, 495 nm
Experimental: as §1, §2, §3
(§5) Derived extramammary Paget's disease lesion tissue having a thickness of 500 μm and malignant melanoma lesion tissue having a thickness of 100 μm were subjected to a clearing treatment without being subjected to fixation and thinly slicing, and then stained with PK and propidium iodide (PI). Clearing treatment was performed by using LUCID method, according to the procedure described in Sawada K, Kawakami R, Shigemoto R, and Nemoto T. Eur. J. Neurosci., 2018, Vol. 47, No. 9, 1033-1042. The cleared tissue was stained with a PK staining as in Test Example 1. PI staining was performed by a method usually performed in tissue staining. As conditions for microscopy, the same conditions as in Test Example 1 were used for detection of PK signals.

[8] = system: extramammary Paget's disease lesion tissue (Paget cells); experiment: as above
Experimental: as §1, §2, §3, §5

[9] = Measurement of photophysical properties of PC in organic solvent and phosphate buffer (absorption spectrum, fluorescence spectrum, fluorescence quantum yield); assay type: physicochemical; conditions: 20 mM phosphate buffer (pH 7.4) at 25° C.
[10] = 5 μm paraffin section, 960 nm laser, 495 nm filter

| SMILES | shift of the fluorescence wavelength due to solvatochromism ([1]; Test Example 3 stained tissue) | imaging performance for fluorescence observation (rank) [1] | fluorescence intensity of the raw image [2] | imaging performance for fluorescence observation (rank) [2] | staining of normal rectal mucosal epithelium [3] | absorption maximum wavelength ([4]; 20 mM phosphate buffer (pH 7.4) at room temperature) | fluorescence maximum wavelength λDMSO ([4]; DMSO) | fluorescence maximum wavelength λMet ([4]; methanol) | fluorescence maximum wavelength λHep ([4]; n-heptane) | fluorescence maximum wavelength ΔTol ([4]; toluene) | distinction of tumor cells from normal cells [5, 10] | fluorescence signal in the parts where the tumor cells (Paget cells) exist [5, 10] | distribution of the dye in cells ([5]; thin sliced section) | staining of rectal tumor lesion [6] | fluorescence signal in malignant melanoma cells [7] | detection of tumor cells (Paget cells) ([8]; cleared tissue 500 μm thick, LUCID method, 495 nm) | signals in normal cells of the epidermis, dermis, and hair follicle ([8]; normal cells within the observed lesion tissues of Test Example 2) | absorption maximum wavelength [9] | fluorescence maximum wavelength [9] |
| --- | --- | --- | --- | --- | --- | --- | --- | --- | --- | --- | --- | --- | --- | --- | --- | --- | --- | --- | --- |
| CCN(CC)c1ccc2nc3c4ccccc4c(=O)cc-3oc2c1 [Nile Red] | relatively small | followed by PK, POLARIC, and Nile Red in this order | lower than those of PK and PC | followed by PK, Nile Red, and POLARIC in this order |  |  |  |  |  |  |  |  |  |  |  |  |  |  |  |
| CC(=O)c1ccc2ccc3c(N4CCCCC4)ccc4ccc1c2c43 [PK, 1-Acetyl-6-piperidylpyrene] |  | followed by PK, POLARIC, and Nile Red in this order |  | followed by PK, Nile Red, and POLARIC in this order | cell membranes were positive for PK staining, cytoplasm was poorly stained | 407 nm | 558 nm | 593 nm | 474 nm | 503 nm | tumor cells can be distinguished from normal cells | the fluorescence wavelength shifted and the signal level decreased | inserted into cell membranes | cytoplasmic staining property by PK staining was high | not observed | successfully detected even when they were scattered one by one | significantly observed in all of these cells |  |  |
| CCCC(=O)/C=C/c1ccc2ccc3c(N4CCCCC4)ccc4ccc1c2c43 [compound A, (E)-1-(6-(piperidin-1-yl)pyren-1-yl)hexa-1-en-3-one] |  | best performance |  | best performance |  |  |  |  |  |  |  |  |  |  |  |  |  | 421 nm | 621 nm |

From patent US20240053346A1, “FLUORESCENT DYE AND METHOD FOR DETECTING TUMOR CELLS” (NATIONAL UNIVERSITY CORPORATION EHIME UNIVERSITY, priority 2020, published 2024)
